# Reference: patent publication US10945971B2, “Sphingosine kinase type 1 inhibitors and uses thereof” (Enzo Therapeutics, Inc., priority 2008, dated 2021)
# Tests used:
# Akt [1] = assay: Western blotting of Akt phosphorylation, U373 cells; type: cell-based, human
# Protocol: (§1) Cells were scraped in buffer containing 20 mM Tris-HCl, pH 7.5, 50 mM NaCl, 50 mM NaF, 30 mM Na4P2O7, 20 mM 2-glycerophosphate, 1 mM Na3VO4, 5 mM EDTA, 2 mM EGTA, 0.5% SDS and protease inhibitor cocktail (1:200 dilution) and probe-sonicated. Equal amounts of protein determined with bicinchoninic acid (Pierce, Rockford, Ill.), were resolved by SDS-PAGE and transferred to nitrocellulose membranes. Blots were blocked with 5% non-fat dry milk in Tris-buffered saline containing 0.1% […] (TBST) for 1 h at room temperature, and then incubated with primary antibodies (1:3,000 in 1% BSA) overnight, followed by the appropriate HRP-conjugated secondary antibodies (1:40,000 in 1% BSA). Immunocomplexes were visualized by enhanced chemiluminescence (Pierce).
# [2] = Metabolism of SK1-I in cells by LC-ESI-MS/MS; type: in vitro ADME
# Description: Lipids were extracted and phosphorylated and unphosphorylated sphingoid bases, individual ceramide acyl chain species, as well as SK1-I and its metabolites were quantified by liquid chromatography, electrospray ionization-tandem mass spectrometry (LC-ESI-MS/MS) as described previously (Merrill et al. Methods 36:207-224, 2005).
# [3] = system: blasts obtained from patients with AML; details: U.S. Ser. No. 12/387,228; cited from earlier work
# LN229 cells [4] = assay: Boyden chamber chemotaxis, LN229 cells; type: cell-based, human
# Protocol: (§2) Boyden chamber invasion assays were carried out essentially as described (Shida et al. Cancer Res 68:6569-6577, 2008).
# [5] = U.S. Ser. No. 12/387,228; cited from earlier work
# U373 cells = assay: Cell proliferation (WST-1), U373 cells; type: cell-based, human
# Protocol: (§3) U373-MG and LN229 human glioblastoma cells (ATTC, Manassas, Va.) were cultured in DMEM supplemented with 5% FCS. Primary human non-established glioblastoma GBM6 cells were kindly provided by Dr. C. David James and were passaged as tumors in nude mice and subcultured for 1 week following isolation from tumors in media containing 2% FCS to prevent growth of contaminating rodent fibroblasts and then cultured in 5% FCS as described (Yacoub et al., Mol Cancer Ther 7:314-329, 2008). LN229 cells were transfected with H2B-EGFP plasmid and stable colonies were isolated following selection with 1 mg/ml of G418. LN229-H2B-EGFP cells were passaged as tumors as described above.
# (§4) Cells were plated at 10,000 cells/well in 48-well plates and allowed to attach for 24 h. Cell proliferation was measured at the indicated times with WST-1 and absorbance was measured in a plate reader at 450 nm with background subtraction at 630 nm. Cell death was detected by trypan blue exclusion assays in which the percent of blue dye incorporating cells were determined using a light microscope and a hemacytometer as described (Yacoub et al. Mol Cancer Ther 7:314-329, 2008). Apoptotic cell death was measured by staining cell nuclei with the Hoechst dye bisbenzimide and apoptotic cells were identified by condensed, fragmented nuclear regions as described previously (Sankala et al. Cancer Res 67:10466-10474, 2007). A minimum of 300 cells was scored.
# GBM6 = assay: In vitro invasion, GBM6 cells; type: cell-based, human
# Protocol: as §2
# Akt [6] = assay: Western blotting of Akt phosphorylation, GBM6 cells; type: cell-based, human; details: GBM6, shortly following treatment
# Protocol: as §1
# Akt [7] = target: Akt (Homo sapiens, UniProt P31749); details: Paugh et al. Blood 2008; cited from earlier work
# ERK1/2 [8] = assay: Western blotting of pERK1/2, GBM6 cells; type: cell-based, human
# Protocol: as §1
# [9] = system: human leukemic cell lines; details: U.S. Ser. No. 12/387,228; cited from earlier work
# LN229 xenograft tumors = assay: Subcutaneous LN229 xenograft tumors in nu/nu mice; type: in vivo; details: 10 mg/kg i.p. every other day
# Protocol: Adult male NCI nu/nu mice were purchased from NCI (Frederick, Md.). All animal studies were conducted in the Animal Research Core Facility at VCU School of Medicine in accordance with the institutional guidelines. LN229 cells (1×10^6) were injected in the flanks (4 sites per mouse). Palpable tumors appeared in about one week. Five days later, when tumors reached 3-4 mm in diameter, mice were randomly separated into 2 groups and injected i.p. with saline or SK1-I (10 mg/kg) every other day. Tumor measurements were made with calipers, and tumor volume was calculated using the formula: (π×[length in millimeters]×[width in millimeters]2)/6. At the end of the experiment, the animals were euthanized and the tumors removed, fixed in formalin and embedded in paraffin, or frozen in liquid nitrogen.
# Paraffin sections were dewaxed, rehydrated, incubated with proteinase K before permeabilization, and then stained with hematoxylin-eosin. Frozen sections were dried, fixed in formalin, and stained with antibodies against mouse CD-31 (BD Pharmingen, San Jose, Calif.), or rabbit antibodies against phospho-Akt (Ser473) (Cell Signaling) followed by immunohistochemistry with Alexa-488-conjugated species-specific secondary antibodies. Cryosections were air dried, permeabilized with 0.5% Triton X-100, and stained with a fluorescein TUNEL labeling kit (Roche Applied Sciences, Indianapolis, Ind.) followed by counterstaining with Hoechst. Sections were also stained with goat anti-human VEGF affinity-purified antibody (R&D), visualized with anti-goat horseradish peroxidase-diaminobenzidene staining kit (R&D) and counterstained with hematoxylin.
# LN229 cells [10] = assay: In vitro invasion into Matrigel, LN229 cells; type: cell-based, human
# Protocol: as §2
# U87 cells = assay: Proliferation of U87 glioblastoma cells; type: cell-based, human
# Protocol: as §4
# ERK1/2 [11] = assay: Western blotting of ERK1/2 activation, U373 cells; type: cell-based, human
# Protocol: as §1
# LN229 cells [12] = assay: Cell proliferation (WST-1), LN229 cells; type: cell-based, human
# Protocol: as §3, §4
# U118 cells = assay: Proliferation of U118 glioblastoma cells; type: cell-based, human
# Protocol: as §4
# GBM6 glioblastoma cells = assay: Cell proliferation (WST-1), primary non-established GBM6 cells; type: cell-based, human
# Protocol: as §3
# as §4, with “A minimum of 300 cells was scored.” left out
# Sequence of Akt (Homo sapiens, UniProt P31749) (P31749 whole entry): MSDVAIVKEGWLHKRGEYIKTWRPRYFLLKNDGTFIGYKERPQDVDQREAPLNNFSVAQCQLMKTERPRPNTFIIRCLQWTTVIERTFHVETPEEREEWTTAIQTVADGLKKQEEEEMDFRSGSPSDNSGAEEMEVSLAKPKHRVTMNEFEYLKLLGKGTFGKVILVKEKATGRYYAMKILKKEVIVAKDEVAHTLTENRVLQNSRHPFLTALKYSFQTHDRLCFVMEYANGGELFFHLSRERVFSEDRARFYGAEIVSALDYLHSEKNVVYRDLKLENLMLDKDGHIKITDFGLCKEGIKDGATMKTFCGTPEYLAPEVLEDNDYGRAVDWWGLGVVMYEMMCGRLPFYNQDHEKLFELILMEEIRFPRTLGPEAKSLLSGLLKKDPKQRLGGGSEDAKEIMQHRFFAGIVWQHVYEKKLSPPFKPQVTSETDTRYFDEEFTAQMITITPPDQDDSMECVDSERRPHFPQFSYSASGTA
smiles,measurement,setting,value
"CCCCCc1ccc(/C=C/[C@H](O)[C@@H](CO)NC)cc1 [SK1-I, (2R,3S,4E)-N-methyl-5-(4′-pentylphenyl)-2-aminopent-4-ene-1,3-diol]",basal Akt phosphorylation at Thr308 and Ser473,Akt [1]; U373,reduced
same,time to significant inhibitory effect on Akt phosphorylation,Akt [1]; U373,≤ 20 min
same,duration of inhibitory effect on Akt phosphorylation,"Akt [1]; U373, data not shown",at least 24 hours
same,total Akt levels,Akt [1]; after treatment with SK1-I,no significant reductions
same,other metabolites,[2]; after 24 h,no other metabolites were detected
same,phosphorylation of the compound,[2]; in contrast to FTY720,not readily phosphorylated
same,apoptosis,[3],markedly induced apoptosis
same,chemotaxis toward lysophosphatidic acid (LPA),LN229 cells [4],drastically inhibited
same,chemotaxis toward serum and EGF,LN229 cells [4],significantly inhibited
same,water solubility,[5],water-soluble
same,cell growth,"U373 cells; U373, 10 μM, absence of serum",strongly inhibited growth
same,cell numbers,"U373 cells; U373, 10 μM, presence of serum, within 2-4 days",severe reductions in cell numbers
same,concentration at which a significant growth inhibitory effect was observed,U373 cells; U373 cells,3 µM
same,serum- and EGF-induced invasion,GBM6,suppressed
same,basal and serum- and EGF-stimulated phosphorylation of Akt,Akt [6],reduced
same,Akt activity in an in vitro kinase assay,Akt [7],did not inhibit Akt activity
same,pERK1/2 levels,ERK1/2 [8],without affecting
same,apoptosis,[9],markedly induced apoptosis
same,TUNEL positive apoptotic tumor cells,LN229 xenograft tumors,increased numbers
same,VEGF expression in tumors,LN229 xenograft tumors,greatly reduced
same,blood vessel density (CD31 staining),LN229 xenograft tumors,reductions
same,phosphorylated Akt immunostaining in tumors,LN229 xenograft tumors,markedly decreased
same,vascularization in tumors (hematoxilin and eosin),LN229 xenograft tumors,decreased vascularization
same,reduction of tumor weight,"LN229 xenograft tumors; after 43 days, vs vehicle",~4 fold
same,tumor volume,"LN229 xenograft tumors; vs control, single factor ANOVA",significantly smaller tumors
same,"LPA-, serum- and EGF-stimulated in vitro invasion of Matrigel",LN229 cells [10],greatly attenuated
same,proliferation,U87 cells,suppress proliferation
same,EGF- and serum-induced ERK1/2 activation,ERK1/2 [11],did not reduce
same,cell growth,"LN229 cells [12]; LN229, 10 μM, absence of serum",strongly inhibited growth
same,cell numbers,"LN229 cells [12]; LN229, 10 μM, presence of serum, within 2-4 days",severe reductions in cell numbers
same,concentration at which a significant growth inhibitory effect was observed,LN229 cells [12]; LN229 cells,3 µM
same,proliferation,U118 cells,suppress proliferation
same,cell growth,"GBM6 glioblastoma cells; GBM6, 10 μM, presence of serum",markedly reduced growth
same,lowest concentration with significant growth inhibition,"GBM6 glioblastoma cells; GBM6, absence of serum",1 µM
